Reference: patent US12180207B2 (ARRAY BIOPHARMA INC., priority 2018, dated 2024)

Key:
[1] = target: HEK-293 cells transfected with dox-inducible human wild type FGFR1 (Homo sapiens (Human), UniProt P11362); test: FGFR1 pERK cell assay; assay type: cell-based; settings: HEK-293 dox-inducible FGFR1, 1 hour compound, 100 ng/ml FGF-acidic; maximum concentration 5 μM
In short: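 In HEK-293 cells with dox-induced human wild-type FGFR1, compounds (1:3 dilutions, top 5 μM final) were applied 1 h at 37°C before 5 min stimulation with 100 ng/ml FGF-acidic. Phospho-ERK1/2 measured by MSD sandwich immunoassay; IC50 from 4-parameter fit of POC versus vehicle and control compound.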

[2] = target: recombinant human FGFR3 (amino acids R397-T806) (Homo sapiens (Human), UniProt P22607); test: FGFR3 enzyme activity assay (LanthaScreen TR-FRET); assay type: biochemical; settings: 25 μM ATP, 10 min incubation at 22° C., average of multiple determinations if made, read-out: FGFR3 Enz FRET IC50
In short: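 GST-HIS6-tagged human FGFR3 (R397-T806) was reacted with 100 nM Alexa Fluor 647-Poly-GT substrate and 25 μM ATP plus compound in HEPES/MgCl2/Triton buffer, pH 7.5, 2% DMSO, for 10 min at 22 °C.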

[3] = target: FGFR1 (SEQ ID NO: 1, amino acids 458-765) (Homo sapiens (Human), UniProt P11362); test: LC/MS FGFR1 kobs assay (covalent protein modification); assay type: binding; settings: 500 nM FGFR1, 3 μM compound
In short: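 Covalent labeling of FGFR1 kinase domain (aa 458-765) tracked over time by intact-protein LC/MS after formic acid quench. kobs derived by fitting DMSO-normalized percent unmodified FGFR1 to an exponential decay model.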

[4] = target: dephosphorylated FGFR1 (SEQ ID NO: 1, amino acids 458 to 765) (Homo sapiens (Human), UniProt P11362); test: FGFR enzyme binding assay (HTRF tracer displacement), FGFR1; settings: 5 nM dephosphorylated FGFR1, average of multiple determinations if made
In short: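 Compounds were tested for displacement of a tracer from human FGFR kinase in a time-resolved FRET binding format. After 60 minutes at 22° C, signal was read at two wavelengths and converted to percent of control, normalised between untreated wells and 1 μM reference inhibitor.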

[5] = target: FGFR3 (SEQ ID NO: 5, amino acids 449-759) (Homo sapiens (Human), UniProt P22607); test: LC/MS FGFR3 kobs assay (covalent protein modification); assay type: binding; settings: 500 nM FGFR3, 3 μM compound
In short: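 Timed reactions were stopped with 0.4% formic acid, and covalent adduct formation was measured by LC/MS on a Q-TOF with deconvolution of protein masses. Modified signal was normalized to DMSO-control unmodified protein at each time point; percent unmodified protein was fit to exponential decay to give kobs.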

Sequence of recombinant human FGFR3 (amino acids R397-T806) (P22607 397-806): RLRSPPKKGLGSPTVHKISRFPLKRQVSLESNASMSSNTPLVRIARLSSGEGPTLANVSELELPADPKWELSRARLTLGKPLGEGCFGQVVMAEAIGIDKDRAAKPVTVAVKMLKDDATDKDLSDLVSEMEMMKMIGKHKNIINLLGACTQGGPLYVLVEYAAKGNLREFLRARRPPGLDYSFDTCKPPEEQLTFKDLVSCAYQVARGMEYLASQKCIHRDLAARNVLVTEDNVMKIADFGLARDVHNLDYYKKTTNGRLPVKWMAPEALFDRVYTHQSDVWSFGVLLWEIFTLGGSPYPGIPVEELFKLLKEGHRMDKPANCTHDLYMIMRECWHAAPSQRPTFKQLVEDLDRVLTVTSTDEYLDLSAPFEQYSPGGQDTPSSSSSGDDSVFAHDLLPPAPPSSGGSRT
Sequence of FGFR3 (SEQ ID NO: 5, amino acids 449-759) (P22607 449-759): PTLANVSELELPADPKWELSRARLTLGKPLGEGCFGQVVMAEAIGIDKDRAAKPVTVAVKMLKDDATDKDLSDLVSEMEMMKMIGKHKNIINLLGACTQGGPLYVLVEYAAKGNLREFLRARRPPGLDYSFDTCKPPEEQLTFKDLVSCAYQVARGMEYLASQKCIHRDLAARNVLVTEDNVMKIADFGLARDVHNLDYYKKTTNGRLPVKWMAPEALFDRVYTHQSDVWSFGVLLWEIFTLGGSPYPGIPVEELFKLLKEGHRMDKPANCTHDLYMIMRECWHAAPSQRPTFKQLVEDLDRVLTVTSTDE
Sequence of HEK-293 cells transfected with dox-inducible human wild type FGFR1 (P11362 22-822): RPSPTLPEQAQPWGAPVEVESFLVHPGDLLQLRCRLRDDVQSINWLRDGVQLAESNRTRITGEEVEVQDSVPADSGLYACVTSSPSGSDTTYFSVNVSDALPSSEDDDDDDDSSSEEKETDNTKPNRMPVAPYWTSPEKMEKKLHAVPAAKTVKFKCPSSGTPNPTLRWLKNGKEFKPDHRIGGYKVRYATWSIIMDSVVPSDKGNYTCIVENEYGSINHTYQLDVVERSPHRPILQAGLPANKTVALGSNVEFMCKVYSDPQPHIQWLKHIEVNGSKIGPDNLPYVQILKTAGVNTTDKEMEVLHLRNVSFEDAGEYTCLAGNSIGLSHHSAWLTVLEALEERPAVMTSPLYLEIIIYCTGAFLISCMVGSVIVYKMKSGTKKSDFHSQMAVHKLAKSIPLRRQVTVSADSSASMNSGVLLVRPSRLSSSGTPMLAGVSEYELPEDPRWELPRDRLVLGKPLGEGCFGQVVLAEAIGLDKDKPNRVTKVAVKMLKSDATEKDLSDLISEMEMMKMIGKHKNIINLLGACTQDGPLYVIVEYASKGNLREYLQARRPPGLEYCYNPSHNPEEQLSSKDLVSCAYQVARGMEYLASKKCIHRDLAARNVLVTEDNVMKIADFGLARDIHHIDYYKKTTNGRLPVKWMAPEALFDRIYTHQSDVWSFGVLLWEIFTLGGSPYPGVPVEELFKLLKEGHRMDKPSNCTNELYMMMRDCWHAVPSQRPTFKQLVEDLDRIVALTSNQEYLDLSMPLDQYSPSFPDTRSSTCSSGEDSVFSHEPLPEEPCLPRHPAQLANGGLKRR
Sequence of FGFR1 (SEQ ID NO: 1, amino acids 458-765) (P11362 458-765): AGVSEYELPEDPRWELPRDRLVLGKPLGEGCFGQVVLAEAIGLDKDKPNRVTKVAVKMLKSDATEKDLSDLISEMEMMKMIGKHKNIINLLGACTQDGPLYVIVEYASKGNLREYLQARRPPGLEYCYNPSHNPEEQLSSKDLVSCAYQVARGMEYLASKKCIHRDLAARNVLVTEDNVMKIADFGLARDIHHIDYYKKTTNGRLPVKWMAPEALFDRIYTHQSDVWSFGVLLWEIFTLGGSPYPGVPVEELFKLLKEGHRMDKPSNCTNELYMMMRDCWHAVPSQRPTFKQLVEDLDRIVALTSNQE
Sequence of dephosphorylated FGFR1 (SEQ ID NO: 1, amino acids 458 to 765) (P11362 458-765): as above

For `C=CS(=O)(=O)N1CCC(C(=O)N2CCC(n3cc(-c4cc(OC)c5c(C#N)cnn5c4)cn3)CC2)CC1` [Example 186, 4-methoxy-6-(1-(1-(1-(vinylsulfonyl)piperi-dine-4-carbonyl)piperidin-4-yl)-1H-pyrazol-4-yl)pyrazolo[1,5-a]pyridine-3-carbonitrile], the IC50 [1] was 35 nM, the IC50 [2] was 5 nM and the “FGFR1 Enz kobs” value [3] was 0.01483 min⁻¹. For the same compound, the IC50 [4] was 14 nM and the “FGFR3 Enz kobs” value [5] was 0.08793 min⁻¹.
